Values after ≈ are worked out from the molar mass of the structure shown. Values joined by “and” are separate entries in the source; they are usually repeats but may differ in a detail not shown here. Equal values may be shown once. Read-outs that look alike come from different tables or passages of the source.
Columns and labels:
[1] = system: KPC-producing Enterobacterales (KPC-CRE); test: organism not typed; type: cell-based; details: for CLSI % Res: for MEM-ANT3310 % at ≥16 µg/mL; for EUCAST % Res / EUCAST % Sus: EUCAST BP
Procedure: (§1) All isolates were randomly selected from the frozen culture collection of IHMA collected in 2018 and 2019. Matrix-assisted laser desorption ionization-time of flight mass spectrometry was used to confirm the identity of the organisms tested (Bruker Daltonics, Bremen, Germany).
(§2) MICs for all antimicrobial agents were determined at IHMA by broth microdilution in accordance with both CLSI ([17]) and EUCAST ([18]) guidelines. Microtiter panels were prepared by IHMA and stored at −70°C in cation-adjusted Mueller Hinton broth (CAMHB) (Becton Dickinson). Iron-depleted CAMHB was used to test cefiderocol. Panels containing ANT3310 were prepared fresh on the day of testing. […] MIC values corresponded to the first well with no visible growth. Quality control testing was performed on each day of testing with E. coli ATCC 25922, P. aeruginosa ATCC 27853, K. pneumoniae ATCC 700603 and BAA 1705, and A. baumannii NCTC 13304. MICs were interpreted using 2023 CLSI ([17]) and EUCAST ([18]) BPs.

[2] = system: OXA-producing Enterobacterales (OXA-CRE); test: organism not typed; type: cell-based; details: for CLSI % Res: for MEM-ANT3310 % at ≥16 µg/mL; for EUCAST % Res / EUCAST % Sus: EUCAST BP
Procedure: as §1, §2

[3] = system: P. aeruginosa clinical isolates; test: Broth microdilution MIC, P. aeruginosa clinical isolates; type: cell-based, Pseudomonas aeruginosa; details: 502 P. aeruginosa, 2019 global collection
Procedure: as §1, §2

[4] = system: carbapenem-resistant Acinetobacter baumannii (CRAB) clinical isolates; test: Broth microdilution MIC, CRAB isolates; type: cell-based; details: for CLSI % Res: for MEM-ANT3310 % at ≥16 µg/mL; for EUCAST % Res / EUCAST % Sus: EUCAST BP; for Number of isolates inhibited at MIC of >16 µg/mL: footnote c
Procedure: as §1, §2

[5] = system: A. baumannii clinical isolates; test: Broth microdilution MIC, A. baumannii clinical isolates; type: cell-based, Acinetobacter baumannii; details: for CLSI % Res: for MEM-ANT3310 % at ≥16 µg/mL; for EUCAST % Res / EUCAST % Sus: EUCAST BP; for Number of isolates inhibited at MIC of >16 µg/mL: footnote c
Procedure: as §1, §2

[6] = 180 KPC-producing Enterobacterales, 2018 global collection
[7] = 180 KPC-producing Enterobacterales, CLSI BP
[8] = 180 KPC-producing Enterobacterales
[9] = 252 OXA-producing Enterobacterales, 2018 global collection
[10] = 252 OXA-producing Enterobacterales, CLSI BP
[11] = 252 OXA-producing Enterobacterales
[12] = 2018 Global collection, CRAB, N 363, CLSI BP
[13] = 2018 Global collection, CRAB, N 363
[14] = 2019 Global collection, CRAB, N 340
[15] = 2018 Global collection, All A. baumannii, N 500
[16] = 2018 Global collection, All A. baumannii, N 500, CLSI BP
[17] = 2019 Global collection, All A. baumannii, N 405
[18] = 2018 Global collection, CRAB (MEM MICs >4 µg/mL), N 363

colistin
MIC50 [1, 6]: 0.25 µg/mL | MIC90 [1, 6]: 16 µg/mL | CLSI % Res [1, 7]: 26.7% | EUCAST % Res [1, 8]: 26.7% | EUCAST % Sus [1, 8]: 73.3% | MIC50 [2, 9]: 0.25 µg/mL | MIC90 [2, 9]: 8 µg/mL | CLSI % Res [2, 10]: 23.8% | EUCAST % Res [2, 11]: 23.8% | EUCAST % Sus [2, 11]: 76.2% | MIC50 [3]: 1 µg/mL | MIC90 [3]: 1 µg/mL | Number of isolates inhibited at MIC of 0.25 µg/mL [3]: 4 | Number of isolates inhibited at MIC of 0.5 µg/mL [3]: 21 | Number of isolates inhibited at MIC of 1 µg/mL [3]: 452 | Number of isolates inhibited at MIC of 2 µg/mL [3]: 21 | Number of isolates inhibited at MIC of 4 µg/mL [3]: 2 | Number of isolates inhibited at MIC of 16 µg/mL [3]: 1 | Number of isolates inhibited at MIC of ≤0.125 µg/mL [3]: 1 | MIC50 [4]: 0.25 µg/mL and 0.5 µg/mL | MIC90 [4]: 0.5 µg/mL and 1 µg/mL | Number of isolates inhibited at MIC of 4 µg/mL [4]: 2 | Number of isolates inhibited at MIC of 8 µg/mL [4]: 2 | Number of isolates inhibited at MIC of 16 µg/mL [4]: 2 | Number of isolates inhibited at MIC of ≤0.125 µg/mL [4]: 13 | CLSI % Res [4, 12]: 2.8% | EUCAST % Res [4, 13]: 2.8% | EUCAST % Sus [4, 13]: 97.2% | Number of isolates inhibited at MIC of >16 µg/mL [4, 13]: 4^c | Number of isolates inhibited at MIC of 2 µg/mL ([4]; 2019 Global collection, CRAB (MEM MICs >4 µg/mL), N 340): 4 | CLSI % Res ([4]; 2019 Global collection, CRAB, N 340, CLSI BP): 1.2% | EUCAST % Res [4, 14]: 1.2% | EUCAST % Sus [4, 14]: 98.8% | Number of isolates inhibited at MIC of >16 µg/mL [4, 14]: 4^c | MIC50 [5, 15]: 0.25 µg/mL | MIC90 [5, 15]: 0.5 µg/mL | Number of isolates inhibited at MIC of 0.25 µg/mL [5, 15]: 287 | Number of isolates inhibited at MIC of 0.5 µg/mL [5, 15]: 165 | Number of isolates inhibited at MIC of 1 µg/mL [5, 15]: 15 | Number of isolates inhibited at MIC of 4 µg/mL [5, 15]: 3 | Number of isolates inhibited at MIC of 8 µg/mL [5, 15]: 2 | Number of isolates inhibited at MIC of 16 µg/mL [5, 15]: 2 | Number of isolates inhibited at MIC of ≤0.125 µg/mL [5, 15]: 22 | CLSI % Res [5, 16]: 2.2% | EUCAST % Res [5, 15]: 2.2% | EUCAST % Sus [5, 15]: 97.8% | Number of isolates inhibited at MIC of >16 µg/mL [5, 15]: 4^c | MIC50 [5, 17]: 0.5 µg/mL | MIC90 [5, 17]: 1 µg/mL | Number of isolates inhibited at MIC of 0.25 µg/mL [5, 17]: 32 | Number of isolates inhibited at MIC of 0.5 µg/mL [5, 17]: 296 | Number of isolates inhibited at MIC of 1 µg/mL [5, 17]: 66 | Number of isolates inhibited at MIC of 2 µg/mL [5, 17]: 5 | Number of isolates inhibited at MIC of 4 µg/mL [5, 17]: 1 | Number of isolates inhibited at MIC of 16 µg/mL [5, 17]: 1 | CLSI % Res ([5]; 2019 Global collection, All A. baumannii, N 405, CLSI BP): 1.5% | EUCAST % Res [5, 17]: 1.5% | EUCAST % Sus [5, 17]: 98.5% | Number of isolates inhibited at MIC of >16 µg/mL [5, 17]: 4^c | % susceptible at EUCAST BP ([5]; A. baumannii, 2018/2019 collections): 98.1% | MIC90 ([5]; A. baumannii, one or both of the 2018/2019 collections): 1 µg/mL

NCC[C@H](O)C(=O)N[C@@H]1C[C@H](N)[C@@H](O[C@H]2O[C@H](CN)[C@@H](O)[C@H](O)[C@H]2O)[C@H](O)[C@H]1O[C@H]1O[C@H](CO)[C@@H](O)[C@H](N)[C@H]1O [Amikacin, amikacin]
MIC50 [1]: 16 µg/mL (≈ 27.3 µM) | MIC90 [1]: 64 µg/mL (≈ 109 µM) | CLSI % Res [1, 7]: 11.7% | CLSI % Sus ([1]; 180 KPC-producing Enterobacterales, CLSI BP, for MEM-ANT3310 % inhibited at ≤8 µg/mL): 57.8% | EUCAST % Res [1, 8]: 54.4% | EUCAST % Sus [1, 8]: 45.6% | MIC50 [2]: 16 µg/mL (≈ 27.3 µM) | MIC90 [2]: > 64 µg/mL | CLSI % Res [2, 10]: 32.1% | CLSI % Sus ([2]; 252 OXA-producing Enterobacterales, CLSI BP, for MEM-ANT3310 % inhibited at ≤8 µg/mL): 59.5% | EUCAST % Res [2, 11]: 52.0% | EUCAST % Sus [2, 11]: 48.0% | Number of isolates inhibited at MIC of 0.5 µg/mL [4, 18]: 1 | Number of isolates inhibited at MIC of 1 µg/mL [4, 18]: 9 | Number of isolates inhibited at MIC of 2 µg/mL [4, 18]: 25 | Number of isolates inhibited at MIC of 4 µg/mL [4, 18]: 20 | Number of isolates inhibited at MIC of 8 µg/mL [4, 18]: 5 | Number of isolates inhibited at MIC of 16 µg/mL [4, 18]: 10 | Number of isolates inhibited at MIC of 32 µg/mL [4, 18]: 11 | Number of isolates inhibited at MIC of >32 µg/mL [4, 18]: 282 | CLSI % Res [4, 12]: 77.7% | CLSI % Sus ([4]; 2018 Global collection, CRAB, N 363, CLSI BP, for MEM-ANT3310 % inhibited at ≤8 µg/mL): 19.3% | EUCAST % Res [4, 13]: 83.5% | EUCAST % Sus [4, 13]: 16.5% | MIC50 ([4]; Acinetobacter baumannii, 2018 Global collection, CRAB (MEM MICs >4 µg/mL), N 363, read-out: MIC50): > 32 µg/mL | MIC90 ([4]; Acinetobacter baumannii, 2018 Global collection, CRAB (MEM MICs >4 µg/mL), N 363, read-out: MIC90): > 32 µg/mL | Number of isolates inhibited at MIC of 0.5 µg/mL [5, 15]: 2 | Number of isolates inhibited at MIC of 1 µg/mL [5, 15]: 42 | Number of isolates inhibited at MIC of 2 µg/mL [5, 15]: 96 | Number of isolates inhibited at MIC of 4 µg/mL [5, 15]: 33 | Number of isolates inhibited at MIC of 8 µg/mL [5, 15]: 12 | Number of isolates inhibited at MIC of 16 µg/mL [5, 15]: 11 | Number of isolates inhibited at MIC of 32 µg/mL [5, 15]: 13 | Number of isolates inhibited at MIC of >32 µg/mL [5, 15]: 291 | CLSI % Res [5, 16]: 58.2% | CLSI % Sus ([5]; 2018 Global collection, All A. baumannii, N 500, CLSI BP, for MEM-ANT3310 % inhibited at ≤8 µg/mL): 39.2% | EUCAST % Res [5, 15]: 63% | EUCAST % Sus [5, 15]: 37% | MIC50 ([5]; Acinetobacter baumannii, 2018 Global collection, All A. baumannii, N 500, read-out: MIC50): > 32 µg/mL | MIC90 ([5]; Acinetobacter baumannii, 2018 Global collection, All A. baumannii, N 500, read-out: MIC90): > 32 µg/mL | MIC90 ([5]; Acinetobacter baumannii, A. baumannii, one or both of the 2018/2019 collections, read-out: MIC90): ≥ 32 µg/mL

Source: publication PMC10916402, “Meropenem-ANT3310, a unique β-lactam-β-lactamase inhibitor combination with expanded antibacterial spectrum against Gram-negative pathogens including carbapenem-resistant Acinetobacter baumannii” (Antimicrobial Agents and Chemotherapy, 2024)
